Non-standard residues stand in square brackets, D forms with d. No end group written: not given here.
Columns and labels:
[1] = system: streptozotocin (STZ)-diabetic rats; assay: Formalin flinch test in streptozotocin-diabetic rats; format: in vivo, rat; set-up: hyperalgesia in formalin test / formalin-induced pain (allodynia): dose or concentration left out as unconfirmed
Procedure: Rats were made diabetic by a single intraperitoneal injection of streptozotocin (STZ) (50 mg/kg body weight, freshly dissolved in 0.9% sterile saline) to ablate pancreatic β cells and induce insulin deficiency as described in Calcutt et al., Pain 68:293-299 (1996). Two days later, diabetes was confirmed in streptozotocin-injected rats by measuring blood glucose levels. Streptozotocin-injected animals with a blood glucose concentration below 15 mmol/l were excluded from subsequent studies, according to the commonly accepted definition of non-fasting hyperglycemia in studies of diabetes in rats.
Both diabetic and control rats were studied at 8 weeks by analyzing the behavioral response to the noxious chemical formalin as an indicator of allodynia (Calcutt et al. supra (1996)). Briefly, rats received a subcutaneous injection of freshly-prepared formalin (50 μl of 0.5% solution in sterile saline) into the dorsal surface of the right hind paw. This concentration of formalin induces sub-maximal behavioral responses in control rats and allows detection of hyperalgesia in diabetic rats during phases Q and 2 (Calcutt et al., Eur. J. Pharmacol. 285:189-197 (1995). Animals were transferred to an observation chamber constructed to allow continuous visualization of the paws. The number of flinches during one minute periods were counted at 5 minute intervals for the next 60 minutes by an observer who was unaware of the treatment group of each animal. Phase 1 was defined as the initial measurement of flinching (1-2 and 5-6 minutes post injection); the Q (quiescent) phase as the measurements made at 10-11, 15-16 and 20-21 minutes; and Phase 2 as all subsequent measurements post injection, as previously defined for studies of diabetic rats (see, for example, Malmberg et al., Neurosci. […] Comparisons of activity during each phase were made by summing the flinches at measurement points within the phase. Diabetic rats gave an abnormal flinch response, as has been reported previously.
Peptide SEQ ID NO:2 was obtained in pure form by chemical synthesis, dissolved in sterile PBS and buffered to a neutral pH. Diabetic rats were divided in two groups of four animals each, which were administered saline or peptide SEQ ID NO:2, respectively.
The formalin testing was done after 4 weeks, of three time weekly injections, and testing was done after the last dose (last bar, FIG. 7).
This EXAMPLE was designed to determine whether prosaptide could also reverse conduction deficits and hyperalgesia in the formalin test pain model once these disorders are established in diabetic rats. SNCV was measured before onset of diabetes and 4-8 weeks later in groups of control, untreated diabetic and prosaptide-treated (200 μg/kg i.p. thrice weekly for the last 4 weeks) diabetic rats. Flinch responses to injection of formalin (50 μl or 0.5% or 5.0% solution) were followed for 60 min in control, 8 week untreated diabetic, […] with prosaptide (200 μg/kg i.p.) thrice weekly for the last 4 weeks (the last treatment being 48-72 hr pre-test).

[2] = system: Selzer rat model; assay: Hyperalgesia (hot plate withdrawal) in Selzer model rats; format: in vivo; conditions: intravenous at a dose of 200 mg/kg
Procedure: After induction of hyperalgesia by ligation of the sciatic nerve in one hind limb, the animals were injected with Prosaptide TX 14(A). Relief was measured using the hot plate withdrawal technique comparing ligated vs. unligated hind foot withdrawal. […] The relief lasted for up to 48 hours post injection.

[3] = system: NS20Y cells; assay: Neural cell death (trypan blue) in NS20Y cells; format: cell-based; conditions: 8 ng/ml, 2 days in 0.5% fetal bovine serum
Procedure: Media is removed and 0.2% trypan blue in PBS is added to each well. Dead cells stain blue with the trypan blue dye and are scored as a percentage of the total on an inverted microscope, counting 400 cells in four areas of each well. The average error of duplicates is ±5%.

[4] = system: NS20Y neuroblastoma cells; assay: Neurite outgrowth in NS20Y neuroblastoma cells; format: cell-based
Procedure: NS20Y neuroblastoma cells are grown in Dulbecco's modified Eagle medium (DMEM) containing 10% fetal calf serum (FCS). Cells are removed with trypsin and plated in 30 mm petri dishes onto glass coverslips. […] Cells are cultured for an additional 24 hours, washed with PBS and fixed with Bouin's solution (saturated aqueous picric acid/formalin/acetic acid 15:5:1) for 30 minutes. After fixative is removed with PBS, neurite outgrowth is scored under a phase contrast microscope. […] At least 200 cells are scored in different positions of each dish to determine the percentage of neurite bearing cells with each peptide assayed in duplicate.

[5] = 200 μg/kg intraperitoneal, two hours before 0.5% formalin

Q: Which “hyperalgesia during the formalin test” value ([1]; 200 μg/kg i.p. thrice weekly for the last 4 weeks, last treatment 48-72 hr pre-test) does the source give for T[dA]LIDNNATEEILY [SEQ ID NO:2] here?
A: reduction in hyperalgesia

Q: What about the “abnormal flinch response in Phase 1” value [1, 5] of the same substance?
A: completely prevented the abnormal flinch response

Q: And the “amelioration of the flinch response in Phase 2” value [1, 5]?
A: 70%

Q: And the “hyperalgesia in formalin test” value ([1]; after 8 weeks of diabetes, i.p. 30 min before testing)?
A: reversed the hyperalgesia

Q: What about the “hyperalgesia in the diabetic rat” value ([1]; given parenterally, FIG. 7) of the same substance?
A: reverses hyperalgesia

Q: What about the “hyperalgesia during the formalin test” value ([1]; single bolus 200 μg/kg i.p. 30 min pre-test, 8 week diabetic rats) of the same substance?
A: effective in abolishing hyperalgesia

Q: And the “formalin-induced pain (allodynia)” value ([1]; three time weekly injections for 4 weeks)?
A: prevention of formalin-induced pain (allodynia)

Q: And the “duration of relief post injection” value [2]?
A: up to 48 hours

Q: And the relief of hyperalgesia [2]?
A: nearly complete relief of hyperalgesia

Q: What about the “time after injection to relief” value [2] of the same substance?
A: ≤ 3 h

Q: And the “number of trypan blue-positive (dead) cells” value [3]?
A: substantially reduces the number of trypan blue-positive (dead) cells

Q: What about the “neurite outgrowth (percentage of neurite bearing cells)” value ([4]; 24 hours, compared to a scrambled control peptide) of the same substance?
A: significantly increases neurite outgrowth

Q: What about the “concentration at which increased neurite outgrowth is evident” value ([4]; as little as) of the same substance?
A: 0.5 ng/mL
